Source: US20260022142A1, “MACROCYCLIC IMMUNOMODULATORS” (Bristol-Myers Squibb Company, priority 2022, published 2026)
Numbered stars: 1 amine (or outer) side, 2 acyl side, 3 side chain; on linkers, the order of the positions; unused ones are H or OH. Bridge positions count the residues as written; N and C are the ends. Square brackets hold non-standard residues; d marks the D form. Peptide text beside a SMILES is read from it. * marks the point of attachment. ξ: configuration not given here. Phe(4-CH2CH2COOH) = N[C@@H](Cc1ccc(CCC(=O)O)cc1)C(=O)O; Phe(4-COOH) = N[C@@H](Cc1ccc(C(=O)O)cc1)C(=O)O; Bip = N[C@@H](Cc1ccc(-c2ccccc2)cc1)C(=O)O; NH(CH2)14COOH = O=C(O)CCCCCCCCCCCCCCN*; Phe(3-Me) = Cc1cccc(C[C@H](N)C(=O)O)c1; γGlu = O=C(O)[C@H](CCC(=O)[*:2])N[*:1]; Val(3-OH) = CC(C)(O)[C@H](N)C(=O)O; hArg = N=C(N)NCCCC[C@H](N)C(=O)O; Cha = N[C@@H](CC1CCCCC1)C(=O)O; Cit = NC(=O)NCCC[C@H](N)C(=O)O; Thr(3ξ) = CC(O)[C@H](N)C(=O)O; 12Ado = NCCCCCCCCCCCC(=O)O; Carboxymethyl = O=C(O)C*; Orn = NCCC[C@H](N)C(=O)O; Aun = NCCCCCCCCCCC(=O)O; Dab = NCC[C@H](N)C(=O)O; Dap = NC[C@H](N)C(=O)O; AEEA = NCCOCCOCC(=O)O; Aib = CC(C)(N)C(=O)O

Target: T1, PD-1/PD-L1 interaction (PE-labeled human PD-L1-Ig binding to Jurkat cell line over-expressing human PD-1) (Homo sapiens, UniProt Q15116)
T1 construct: expressed in transfected cells; host or cells: Jurkat
T1 sequence (Q15116 25-288): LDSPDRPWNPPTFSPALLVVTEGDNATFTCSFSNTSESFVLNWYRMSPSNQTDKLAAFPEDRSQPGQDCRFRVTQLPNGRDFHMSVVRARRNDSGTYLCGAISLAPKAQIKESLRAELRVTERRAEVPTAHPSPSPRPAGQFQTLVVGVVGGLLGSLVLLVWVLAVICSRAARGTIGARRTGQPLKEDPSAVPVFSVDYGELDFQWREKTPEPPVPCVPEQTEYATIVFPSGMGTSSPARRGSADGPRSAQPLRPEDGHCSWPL
Assay: Jurkat-PD-1 Cell Binding High-Content Screening Assay (CBA)
Format: cell-based
Settings: Jurkat cell line over-expressing human PD-1; PE-labeled PD-L1-Ig 20 nM final; read-out: Jurkat hPD1-PDL1 IC50
Procedure, shortened: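 Binding of fluorescent PD-L1-Ig (phycoerythrin on Ig tag, 20 nM final, 1 h) measured by high-content imaging of fixed, Hoechst-counterstained Jurkat-hPD-1 cells. Compound added 2 h at 37° C beforehand, in DMEM with 10% fetal calf serum.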

Row | SMILES | IC50
1 | Cc1cccc(C[C@@H]2NC(=O)[C@H](CC(=O)O)NC(=O)[C@H](Cc3ccc(O)cc3)NC(=O)[C@H](CC(N)=O)NC(=O)CSC[C@@H](C(=O)N[C@@H](CCCN)C(=O)NCCCCCCCCCCC(=O)O)NC(=O)[C@H](CCC(N)=O)NC(=O)[C@H](C(C)C)NC(=O)[C@H](CC(C)C)NC(=O)[C@H](CCN)NC(=O)[C@@H](CC(C)C)NC(=O)[C@H](CCCN)NC(=O)[C@H](CCCNC(N)=O)NC(=O)[C@H](Cc3ccc(-c4ccccc4)cc3)NC(=O)[C@H](C(C)C)NC2=O)c1 [Compound 2790] ({CH2CO}-NYD[Phe(3-Me)]V[Bip][Cit][Orn][dL][Dab]LVQC[Orn][Aun]-OH; thioether N-14) | 71.1 nM
2 | CC(C)C[C@@H]1NC(=O)[C@H](Cc2c[nH]c3ccccc23)NC(=O)[C@H](CC(=O)O)NC(=O)[C@H](Cc2ccc(OCC(=O)O)cc2)NC(=O)[C@H](CCCCNC(=N)N)NC(=O)CSC[C@@H](C(=O)NCC(=O)NCCOCCOCC(=O)N[C@@H](CCCN)C(=O)NCCOCCOCC(=O)NCCCCCCCCCCCC(=O)O)NC(=O)[C@H](CO)NC(=O)[C@H](C(C)C)NC(=O)[C@H](CC2CCCCC2)NC(=O)[C@H](CCN)NC(=O)[C@@H](CC(C)C)NC(=O)[C@H](CCCN)NC(=O)[C@H](C(C)C)NC(=O)[C@H](Cc2ccc(-c3ccccc3)cc2)NC1=O [Compound 3189] ({CH2CO}-[hArg]Y(Carboxymethyl)DWL[Bip]V[Orn][dL][Dab][Cha]VSCG[AEEA][Orn][AEEA][12Ado]-OH; thioether N-14) | 21.7 nM
3 | Cc1cccc(C[C@@H]2NC(=O)[C@H](CC(=O)O)NC(=O)[C@H](Cc3ccc(OCC(=O)O)cc3)NC(=O)[C@H](CN)NC(=O)CSC[C@@H](C(=O)N[C@@H](CCN)C(=O)NCCCCCCCCCCC(=O)O)NC(=O)[C@H](CN)NC(=O)[C@H](C(C)C)NC(=O)[C@H](CC3CCCCC3)NC(=O)[C@H](CCN)NC(=O)[C@@H](CC(C)C)NC(=O)[C@H](CCCN)NC(=O)[C@H](C(C)C)NC(=O)[C@H](Cc3ccc(-c4ccccc4)cc3)NC(=O)[C@H](C(C)C)NC2=O)c1 [Compound 2558] ({CH2CO}-[Dap]Y(Carboxymethyl)D[Phe(3-Me)]V[Bip]V[Orn][dL][Dab][Cha]V[Dap]C[Dab][Aun]-OH; thioether N-14) | 10.7 nM
4 | Cc1cccc(C[C@@H]2NC(=O)[C@H](CC(=O)O)NC(=O)[C@H](Cc3ccc(OCC(=O)O)cc3)NC(=O)[C@H](CC(C)C)NC(=O)CSC[C@@H](C(=O)N[C@@H](CCN)C(=O)NCCOCCOCC(=O)N[C@@H](CCC(=O)O)C(=O)N[C@@H](CCC(=O)NCCOCCOCC(=O)NCCCCCCCCCCCCCCC(=O)O)C(=O)O)NC(=O)[C@H](CC(=O)O)NC(=O)[C@H](C(C)(C)O)NC(=O)[C@H](CC3CCCCC3)NC(=O)[C@H](CCN)NC(=O)[C@@H](CC(C)C)NC(=O)[C@H](CCCN)NC(=O)[C@H](Cc3ccc(C(=O)O)cc3)NC(=O)[C@H](Cc3ccc(-c4ccccc4)cc3)NC(=O)[C@H](Cc3ccc(C(=O)O)cc3)NC2=O)c1 [Compound 3892] ({CH2CO}-LY(Carboxymethyl)D[Phe(3-Me)][Phe(4-COOH)][Bip][Phe(4-COOH)][Orn][dL][Dab][Cha][Val(3-OH)]DC[Dab][AEEA]E[γGlu][AEEA]-{NH(CH2)14COOH}; thioether N-14) | 388 nM
5 | Cc1cccc(C[C@@H]2NC(=O)[C@H](CC(=O)O)NC(=O)[C@H](Cc3ccc(OCC(=O)O)cc3)NC(=O)[C@H](CN)NC(=O)CSC[C@@H](C(=O)NC(C)(C)C(=O)N[C@@H](CCC(=O)O)C(=O)NCCCCCCCCCCC(=O)O)NC(=O)[C@H]([C@@H](C)O)NC(=O)[C@H](C(C)C)NC(=O)[C@H](CC3CCCCC3)NC(=O)[C@H](CCN)NC(=O)[C@@H](CC(C)C)NC(=O)[C@H](CCCN)NC(=O)[C@H](CCCNC(N)=O)NC(=O)[C@H](Cc3ccc(-c4ccccc4)cc3)NC(=O)[C@H](C(C)C)NC2=O)c1 [Compound 2784] ({CH2CO}-[Dap]Y(Carboxymethyl)D[Phe(3-Me)]V[Bip][Cit][Orn][dL][Dab][Cha]VTC[Aib]E[Aun]-OH; thioether N-14) | 21.8 nM

Continued, values first:

Row | IC50 | SMILES
6 | 78.8 nM | Cc1cccc(C[C@@H]2NC(=O)[C@H](CC(=O)O)NC(=O)[C@H](Cc3ccc(OCC(=O)O)cc3)NC(=O)[C@H](CCN)NC(=O)CSC[C@@H](C(=O)N[C@@H](CCCN)C(=O)N[C@@H](CO)C(=O)NCCCCCCCCCCCC(=O)O)NC(=O)[C@H](CO)NC(=O)[C@H](C(C)(C)O)NC(=O)[C@H](CC3CCCCC3)NC(=O)[C@H](CCN)NC(=O)[C@@H](CC(C)C)NC(=O)[C@H](CCCN)NC(=O)[C@H](Cc3ccc(OCC(=O)O)cc3)NC(=O)[C@H](Cc3ccc(-c4ccccc4)cc3)NC(=O)[C@H](Cc3ccc(OCC(=O)O)cc3)NC2=O)c1 [Compound 3617] ({CH2CO}-[Dab]Y(Carboxymethyl)D[Phe(3-Me)]Y(Carboxymethyl)[Bip]Y(Carboxymethyl)[Orn][dL][Dab][Cha][Val(3-OH)]SC[Orn]S[12Ado]-OH; thioether N-14)
7 | 15.1 nM | Cc1cccc(C[C@@H]2NC(=O)[C@H](CC(=O)O)NC(=O)[C@H](Cc3ccc(OCC(=O)O)cc3)NC(=O)[C@H](CCCNC(=N)N)NC(=O)CSC[C@@H](C(=O)N[C@@H](CCN)C(=O)NCCCCCCCCCCC(=O)O)NC(=O)[C@H](C(C)O)NC(=O)[C@H](CO)NC(=O)[C@H](CC3CCCCC3)NC(=O)[C@H](CCN)NC(=O)[C@@H](CC(C)C)NC(=O)[C@H](CCCN)NC(=O)[C@H](Cc3ccc(OCC(=O)O)cc3)NC(=O)[C@H](Cc3ccc(-c4ccccc4)cc3)NC(=O)[C@H](Cc3ccc(CCC(=O)O)cc3)NC2=O)c1 (stereo partly drawn) [Compound 3506] ({CH2CO}-RY(Carboxymethyl)D[Phe(3-Me)][Phe(4-CH2CH2COOH)][Bip]Y(Carboxymethyl)[Orn][dL][Dab][Cha]S[Thr(3ξ)]C[Dab][Aun]-OH; thioether N-14)
8 | 5 nM | Cc1cccc(C[C@@H]2NC(=O)[C@H](CC(=O)O)NC(=O)[C@H](Cc3ccc(OCC(=O)O)cc3)NC(=O)[C@H](CN)NC(=O)CSC[C@@H](C(=O)N[C@@H](CCN)C(=O)NCCOCCOCC(=O)NCCCCCCCCCCC(=O)O)NC(=O)[C@H](CCCN)NC(=O)[C@H](C(C)C)NC(=O)[C@H](CC3CCCCC3)NC(=O)[C@H](CCN)NC(=O)[C@@H](CC(C)C)NC(=O)[C@H](CCCN)NC(=O)[C@H](Cc3ccc(C(=O)O)cc3)NC(=O)[C@H](Cc3ccc(-c4ccccc4)cc3)NC(=O)[C@H](Cc3ccc(O)cc3)NC2=O)c1 [Compound 2042] ({CH2CO}-[Dap]Y(Carboxymethyl)D[Phe(3-Me)]Y[Bip][Phe(4-COOH)][Orn][dL][Dab][Cha]V[Orn]C[Dab][AEEA][Aun]-OH; thioether N-14)
9 | 35.1 nM | Cc1cccc(C[C@@H]2NC(=O)[C@H](CC(=O)O)NC(=O)[C@H](Cc3ccc(OCC(=O)O)cc3)NC(=O)[C@H](CN)NC(=O)CSC[C@@H](C(=O)N[C@@H](CCN)C(=O)NCCCCCCCCCCC(=O)O)NC(=O)[C@H](CCC(=O)O)NC(=O)[C@H](C(C)C)NC(=O)[C@H](CC3CCCCC3)NC(=O)[C@H](CCN)NC(=O)[C@@H](CC(C)C)NC(=O)[C@H](CCCN)NC(=O)[C@H](Cc3ccc(OCC(=O)O)cc3)NC(=O)[C@H](Cc3ccc(-c4ccccc4)cc3)NC(=O)[C@H](Cc3ccc(OCC(=O)O)cc3)NC2=O)c1 [Compound 1245] ({CH2CO}-[Dap]Y(Carboxymethyl)D[Phe(3-Me)]Y(Carboxymethyl)[Bip]Y(Carboxymethyl)[Orn][dL][Dab][Cha]VEC[Dab][Aun]-OH; thioether N-14)
